Results reported in US7368255B2, “RUNX3 gene showing anti-tumor activity and use thereof” (priority 2001, dated 2008).
Entries after “also recorded” stand apart in the source; their conditions may differ.

Legend:
RUNX3 gene expression = assay: Reactivation of RUNX3 gene expression, RT-PCR; assay type: cell-based, human; settings: AZA 300 nM, TSA 1 mM, alone or in combination, 3 days, NUGC3, MKN28, MKN74 cell lines
Procedure: To determine whether the DNA methylation observed in Example 5-1 is the direct cause of the inactivation of the RUNX3 gene, the influence of a DNA methyltransferase inhibitor and a histone deacetylase inhibitor on the reactivation of the RUNX3 gene expression was analyzed.
The NUGC3, MKN28, and MKN74 cell lines (selected randomly from the cell lines showing no RUNX3 gene expression by RT-PCR analysis) were treated with […] (AZA, 300 nM), which inhibits DNA methyltransferase, and trichostatin A (TSA, […]), which inhibits histone deacetylase, alone or in combination. After 3 days of the treatment, total RNA was isolated from each cell line in accordance with the same standardized single-step guanidium method used in Example 4-1, and then analyzed for the expression of the RUNX3 gene by RT-PCR using the PS-N primer pair of SEQ. ID. NOS: 4 and 5.

SNU16-Rx3-AS-c12 cells [1] = assay: Apoptotic DNA bands by genomic DNA electrophoresis after TGF-β1; assay type: cell-based; settings: TGF-β1 1 ng/ml, 6 hours
Procedure: (§1) Cells dying through the programmed cell death pathway reveal a distinct pattern of DNA bands when electrophoresed in an agarose gel. After being treated with 1 ng/ml TGF-β1 for 6 hours, the control-SNU16, SNU16-Rx3-AS-c11, and SNU16-Rx3-AS-c12 strains were lysed to isolate genomic DNAs according to a standard method (Sambrook et al., 1988, Molecular Cloning: a laboratory manual, 2nd Ed. Cold Spring Harbor Laboratory, Cold Spring Harbor, N.Y., USA). 0.2 μg of each of the genomic DNA preparations was electrophoresed on a 1.5% agarose gel and visualized with ethidium bromide under UV light.

SNU16 cells [2] = assay: as above; assay type: cell-based; settings: TGF-β1 1 ng/ml, 6 hours
Procedure: as §1

SNU16-Rx3-AS-c11 cells [3] = assay: as above; assay type: cell-based; settings: TGF-β1 1 ng/ml, 6 hours
Procedure: as §1

SNU16-Rx3-AS-c11 cells [4] = assay: TGF-β1-induced cell death, viable cell counts; assay type: cell-based; settings: TGF-β1 1 ng/ml; SNU16-Rx3-AS-c11 cells (antisense RUNX3)
SNU16-Rx3-AS-c12 cells [5] = assay: TGF-β1-induced cell death, viable cell counts; assay type: cell-based; settings: TGF-β1 1 ng/ml; SNU16-Rx3-AS-c12 cells (antisense RUNX3)
SNU16 cells [6] = assay: TGF-β1-induced cell death, viable cell counts; assay type: cell-based; settings: TGF-β1 1 ng/ml

Nc1ncn([C@H]2C[C@H](O)[C@@H](CO)O2)c(=O)n1
expression of the RUNX3 gene (RT-PCR) (RUNX3 gene expression): the expression of the RUNX3 gene was induced
expression of the RUNX3 gene (RT-PCR) (RUNX3 gene expression; listed as 5-aza-2-deoxycytidine): allows the RUNX3 gene to be expressed

CC(/C=C/C(=O)NO)=C\[C@@H](C)C(=O)c1ccc(N(C)C)cc1 [trichostatin A]
expression of the RUNX3 gene (RT-PCR) (RUNX3 gene expression): allows the RUNX3 gene to be expressed; also recorded: the expression of the RUNX3 gene was induced

TGF-β1: TGF-β1 cytokine used at 1 ng/ml to induce cell death in SNU16 cells
apoptotic DNA bands (SNU16-Rx3-AS-c12 cells [1]): no apoptotic bands were observed
apoptotic DNA bands (SNU16 cells [2]): apoptotic DNA bands were formed; also recorded: These bands are apparent
apoptotic DNA bands (SNU16-Rx3-AS-c11 cells [3]): no apoptotic bands were observed
cell death after TGF-β1 treatment (SNU16-Rx3-AS-c11 cells [4]): did not kill
cell death after TGF-β1 treatment (SNU16-Rx3-AS-c12 cells [5]): did not kill
time within which SNU16 cells were killed (SNU16 cells [6]): ≤ 2 days
